Results reported in paper PMC12211128, “Safety, tolerability, pharmacokinetic and pharmacodynamic effects of the muscarinic M1 positive allosteric modulator VU0467319 for Alzheimer’s disease: a single ascending-dose study in healthy participants” (Alzheimer's Research & Therapy, 2025).

Key:
healthy participants [1] = assay: Critical flicker fusion task (CFF); type: in vivo, human; conditions: for CFF Median Ascending score / CFF Median Descending score: mean (SD)
From the text: The critical flicker fusion task (CFF; [30]) was used to test perceptual vigilance using the frequency of a flickering LED (between 12 and 50 Hz). The outcome variable for CFF is frequency (Hz) for ascending and descending trials. In the ascending trials, the participants pressed a button indicating when the light flickered to a speed where they appear to be continuously on or fused. In the descending trials, the participants pressed a button when the frequency of apparently fused lights is decreased such that lights begin to appear to be flashing.
(§1) Cognitive data: In this exploratory analysis, each outcome variable of the cognitive data was examined in a mixed model analysis of variance with one between-subjects factor of VU319 dose (0, 60, 120, 240, 400, 600 mg) and a within-subjects factor of testing session (pre-dose vs. post-dost administration). Post-hoc analysis compared each of the VU319 dose cohorts against the placebo group. Because the participants were healthy adults with normal cognitive function, we considered effects between no reductions in function to small improvement (d = 0.0–0.20) to be a positive result. For the food effect study, only the participants who received VU319 were examined due to the disproportionately small placebo group (n = 2). A within-subjects ANOVA including food condition (fasted/fed) and testing session (pre-dose vs. post-dose administration) was performed on each outcome variable.
The critical flicker fusion task (CFF; (Kupke & Lewis, 1989)) was used to test perceptual vigilance using the frequency of a flickering LED (between 12-50 Hz). The outcome variable for CFF is frequency (Hz) for ascending and descending trials. In the ascending trials, the participants pressed a button indicating when the light flickered to a speed where they appear to be continuously on or fused. In the descending trials, the participants pressed a button when the frequency of apparently fused lights is decreased such that lights begin to appear to be flashing.

healthy participants [2] = assay: Selective Reminding Task (SRT); type: in vivo, human; conditions: for SRT Delayed Recall / SRT Immediate Recall / SRT Recall Consistency / SRT Recall Failure: mean (SD)
From the text: The Selective Reminding Task (SRT; [36]) was used to test immediate and delayed episodic memory. Participants were read a list of 16 words and must immediately recall the list across eight trials, then again after a 20-minute delay. The outcome measures were the SRT total immediate recall across the eight trials, recall consistency as the number of words correctly recalled on two sequential trials, recall failure as the number of words not recalled on two sequential trials, and the delayed recall after the 20-min delay.
as §1
The Selective Reminding Task (SRT; (Buschke & Fuld, 1974)) was used to test immediate and delayed episodic recall. Participants were read a list of 16 words and must immediately recall the list across 8 trials. […] Upon completing the immediate recall portion of the SRT and after a 20‐minute delay, participants were asked to complete a single delayed recall trial. SRT total immediate recall was analyzed using the number of correctly recalled words across trials 1–8, total immediate recall consistency was analyzed using the number of words correctly recalled on two sequential trials across trials 1–8, SRT total immediate recall failure was analyzed using the number of words not recalled on two sequential trials across trials 1–8, and total delayed recall was analyzed using the number of words correctly recalled after a 20-min delay.

animal models = system: animal models; parameters: method as in PMID 39660766; conditions: preclinical and IND-enabling studies; cited from earlier work
[3] = Food effect study 120 mg, Fasting, Post-Drug
[4] = Food effect study 120 mg, Fasting, Pre-Drug
[5] = Food effect study 120 mg, Fed, Post-Drug
[6] = Food effect study 120 mg, Fed, Pre-Drug

## Cn1cc2c(-c3cc(F)c(CN4Cc5ncccc5C4=O)c(F)c3)cccc2n1 [VU319]
Healthy participants [1]; [3]
  CFF Median Ascending score: 39.03 (5.2) Hz
  CFF Median Descending score: 38.59 (4.57) Hz
Healthy participants [1]; [4]
  CFF Median Ascending score: 34.62 (9.06) Hz
  CFF Median Descending score: 38.49 (5.19) Hz
Healthy participants [1]; [5]
  CFF Median Ascending score: 39.29 (4.38) Hz
  CFF Median Descending score: 39.36 (4.08) Hz
Healthy participants [1]; [6]
  CFF Median Ascending score: 39.09 (5.81) Hz
  CFF Median Descending score: 39.25 (3.25) Hz
Healthy participants [1]; SAD study, 60 mg, Post-Drug
  CFF Median Ascending score: 37.67 (3.1) Hz
  CFF Median Descending score: 38.32 (7.51) Hz
Healthy participants [1]; SAD study, 60 mg, Pre-Drug
  CFF Median Ascending score: 36.32 (4.6) Hz
  CFF Median Descending score: 37 (5.35) Hz
Healthy participants [1]; SAD study, 120 mg, Post-Drug
  CFF Median Ascending score: 36.53 (3.87) Hz
  CFF Median Descending score: 38.68 (3.31) Hz
Healthy participants [1]; SAD study, 120 mg, Pre-Drug
  CFF Median Ascending score: 37.33 (2.38) Hz
  CFF Median Descending score: 40.23 (4.95) Hz
Healthy participants [1]; SAD study, 240 mg, Post-Drug
  CFF Median Ascending score: 38.12 (4.1) Hz
  CFF Median Descending score: 37.25 (6.89) Hz
Healthy participants [1]; SAD study, 240 mg, Pre-Drug
  CFF Median Ascending score: 32.72 (9.97) Hz
  CFF Median Descending score: 37.1 (6.52) Hz
Healthy participants [1]; SAD study, 400 mg, Post-Drug
  CFF Median Ascending score: 39.98 (3.97) Hz
  CFF Median Descending score: 40.05 (3.01) Hz
Healthy participants [1]; SAD study, 400 mg, Pre-Drug
  CFF Median Ascending score: 37.92 (3.7) Hz
  CFF Median Descending score: 39.67 (2.1) Hz
Healthy participants [1]; SAD study, 600 mg, Post-Drug
  CFF Median Ascending score: 36.58 (3.14) Hz
  CFF Median Descending score: 39.73 (5.18) Hz
Healthy participants [1]; SAD study, 600 mg, Pre-Drug
  CFF Median Ascending score: 35.45 (3.61) Hz
  CFF Median Descending score: 39.22 (5.92) Hz
Healthy participants [1]; SAD study, both p > 0.3
  CFF ascending trial, effect of dose: no effect of dose, nor a dose by time interaction
Healthy participants [1]; food effect study, 120 mg, p = 0.07
  CFF ascending condition, post- vs pre-dose, effect size d: 1.37
Healthy participants [2]; [3]
  SRT Delayed Recall: 11.3 (3.97)
  SRT Immediate Recall: 88.9 (19.83)
  SRT Recall Consistency: 55.7 (26.22)
  SRT Recall Failure: 10.2 (9.74)
Healthy participants [2]; [4]
  SRT Delayed Recall: 11.5 (3.69)
  SRT Immediate Recall: 86.6 (17.61)
  SRT Recall Consistency: 51.1 (24.64)
  SRT Recall Failure: 9.4 (8.54)
Healthy participants [2]; [5]
  SRT Delayed Recall: 10.9 (3.92)
  SRT Immediate Recall: 88.9 (20.45)
  SRT Recall Consistency: 53.4 (27.22)
  SRT Recall Failure: 8.3 (10.58)
Healthy participants [2]; [6]
  SRT Delayed Recall: 11.2 (3.33)
  SRT Immediate Recall: 88.7 (13.59)
  SRT Recall Consistency: 54 (18.33)
  SRT Recall Failure: 8 (6.11)
Healthy participants [2]; SAD study, 60 mg, Post-Drug
  SRT Delayed Recall: 8.83 (3.55)
  SRT Immediate Recall: 71.67 (14.95)
  SRT Recall Consistency: 35.33 (18.32)
  SRT Recall Failure: 19.83 (9.37)
Healthy participants [2]; SAD study, 60 mg, Pre-Drug
  SRT Delayed Recall: 9 (3.52)
  SRT Immediate Recall: 79.83 (13.18)
  SRT Recall Consistency: 44 (22.93)
  SRT Recall Failure: 13.5 (4.46)
Healthy participants [2]; SAD study, 120 mg, Post-Drug
  SRT Delayed Recall: 9.5 (5.86)
  SRT Immediate Recall: 84 (19.55)
  SRT Recall Consistency: 49.33 (25.15)
  SRT Recall Failure: 12.5 (10.78)
Healthy participants [2]; SAD study, 120 mg, Pre-Drug
  SRT Delayed Recall: 10.17 (5.42)
  SRT Immediate Recall: 84.67 (20.24)
  SRT Recall Consistency: 51.67 (27.6)
  SRT Recall Failure: 13 (9.76)
Healthy participants [2]; SAD study, 240 mg, Post-Drug
  SRT Delayed Recall: 9 (2.45)
  SRT Immediate Recall: 80.67 (13.65)
  SRT Recall Consistency: 41.5 (16.11)
  SRT Recall Failure: 10.83 (10.83)
Healthy participants [2]; SAD study, 240 mg, Pre-Drug
  SRT Delayed Recall: 10.67 (1.86)
  SRT Immediate Recall: 87.33 (11.38)
  SRT Recall Consistency: 54.33 (13.31)
  SRT Recall Failure: 10.83 (7.73)
Healthy participants [2]; SAD study, 400 mg, Post-Drug
  SRT Delayed Recall: 7.83 (3.87)
  SRT Immediate Recall: 70.83 (16.03)
  SRT Recall Consistency: 33.33 (18.24)
  SRT Recall Failure: 20 (11.15)
Healthy participants [2]; SAD study, 400 mg, Pre-Drug
  SRT Delayed Recall: 8.83 (4.79)
  SRT Immediate Recall: 76.33 (24.51)
  SRT Recall Consistency: 42.33 (29.85)
  SRT Recall Failure: 19 (15.66)
Healthy participants [2]; SAD study, 600 mg, Post-Drug
  SRT Delayed Recall: 8.67 (4.8)
  SRT Immediate Recall: 85.83 (21.7)
  SRT Recall Consistency: 51 (27.8)
  SRT Recall Failure: 10.67 (12.58)
Healthy participants [2]; SAD study, 600 mg, Pre-Drug
  SRT Delayed Recall: 11.83 (1.94)
  SRT Immediate Recall: 91.17 (11.81)
  SRT Recall Consistency: 59.83 (13.39)
  SRT Recall Failure: 8.17 (5.27)
Healthy participants [2]; SAD study, all p > 0.2
  SRT four outcome measures, effect of dose: did not show a significant effect of dose, nor dose by time
Healthy participants [2]; food effect study, 120 mg
  SRT performance, effect of food or time: no impact of food or time
Animal models
  SLUDGE effects in animal models: without producing SLUDGE effects
  cognition in animal models: effective at improving cognition
